Data set [1] concerns rats (Wister, male). The data set can be described thus: In vivo toxicology: hepatotoxicity markers in the plasma. More on the design: species or system rat. To be noted: i.p. once a day 3.23 mg-100 g body mass, seven days. As for the experimental part:
(§1) The toxicological studies were carried out with rats (Wister, male) injected i.p. once a day with 3.23 mg-100 g body mass during seven days.
Liver is the major organ of toxicity. Blood samples were collected and the following hepatotoxicity markers were assayed in the plasma: • Alanine transaminase (ALT), • Aspartate transaminase (AST) • Alkaline phosphatase (ALP) • Total bilirubin (TBIL) • Gamma glutamyl transpeptidase (GGT)
Increased levels of the liver enzymes ALT, AST, ALP and GGT in the plasma indicate lesions in liver. Increased RBL would be a sign of faulty bilirubin production/hemolysis and/or bilirubin metabolism (in liver).

Data set [2] has as its system rats (Wister, male). Kind of data set: In vivo toxicology: antioxidant capacity in blood samples. The arrangement: species or system rat. To be noted: i.p. once a day 3.23 mg-100 g body mass, seven days. As for the experimental part: as §1
Metabolization of KTP-NH2 in the organism might lead to an increase in its metabolite products and to the subsequent production of reactive oxygen species (ROS). As increased ROS levels are potentially harmful.
KTP-NH2 potential to induce changes in antioxidant capacities in the plasma of animals was explored. Total antioxidant capacity of lipid-soluble (ACL) and water-soluble (ACW) constituents were determined.

The test system of data set [3] is […] I cells, tunicamycin-induced ER stress. The data set can be described thus: Yeast platform DISAGGREGATOR I, ER stress GFP reporter (chemically induced with tunicamycin). The data set is classed as cell-based. The following applies: 1 μg/ml tunicamycin. As for the experimental part:
Cells were grown as described for FIG. 7;
The yeast platform DISAGGREGATOR I comprises an ER stress element operably linked to a GFP reporter element and is used to determine the level of ER stress in cells during growth or triggered by specific ER stress inducers, e.g. tunicamycin. Tunicamycin is known to inhibit the glycosylation of nascent polypeptides, resulting in misfolded proteins, that are retained in the endoplasmic reticulum and therefore triggering ER stress.
(§2) Using these two platforms in parallel, it is possible to identify compounds that reduce specifically the stress induced by the TAU P301L protein, and other compounds that are simply general ER stress reducers.
(§3) DISAGGREGATOR I P301L cells were grown in 200 μl medium containing the KTP-NH2 at a concentration of 10 μM and 100 μM. DISAGGREGATOR I cells were grown in the same condition but subjected to an addition of 1 μg/mL of tunicamycin in order to induce ER stress chemically.

Data set [4] can be described thus: Metabolic stability in human liver microsomal preparation. In kind it is in vitro ADME. To be noted: human liver microsomes, 1-hour incubation. From the text: Many compounds can never become a drug because they are rapidly metabolized in the liver. It is important to confirm that metabolic stability is adequate to the desired distribution of compound throughout the body.

In another data set the target is CYP3A4 (Homo sapiens, UniProt P08684). Kind of data set: CYP inhibition. The data set is classed as in vitro ADME. To be noted: probe substrates midazolan and testosterone. The text has this: CYP3A4 is one of the most important enzymes involved in the metabolism of xenobiotics in the body, promoting the oxidation of the largest range of substrates of all the CYPs and is present in the largest quantity of all the CYPs in the liver.
Chain of CYP3A4 (P08684 whole entry): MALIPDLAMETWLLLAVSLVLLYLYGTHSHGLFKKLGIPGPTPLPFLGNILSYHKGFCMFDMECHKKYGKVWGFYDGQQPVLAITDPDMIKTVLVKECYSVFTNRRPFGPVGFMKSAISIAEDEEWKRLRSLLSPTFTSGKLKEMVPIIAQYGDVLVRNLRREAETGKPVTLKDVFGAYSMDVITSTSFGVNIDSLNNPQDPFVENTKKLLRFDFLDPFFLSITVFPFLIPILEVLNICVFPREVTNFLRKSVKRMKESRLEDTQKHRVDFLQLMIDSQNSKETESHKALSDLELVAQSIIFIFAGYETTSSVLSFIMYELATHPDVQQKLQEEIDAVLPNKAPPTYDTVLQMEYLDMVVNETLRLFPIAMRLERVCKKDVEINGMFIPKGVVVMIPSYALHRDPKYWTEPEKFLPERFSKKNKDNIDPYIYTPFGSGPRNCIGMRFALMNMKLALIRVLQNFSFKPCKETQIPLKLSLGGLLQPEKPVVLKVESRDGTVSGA

The subject of data set [5] is Tau P301L ([…] I P301L cells). Kind of data set: Yeast platform DISAGGREGATOR I P301L, ER stress GFP reporter (target induced). The data set is classed as cell-based. The following applies: for decrease of the fluorescent signal: first assay (FIG. 9); for decrease of the stress: second assay (FIG. 11). The procedure:
Cells were grown in 200 microlitre minimum medium supplemented with 20 g/L galactose, at 30° C., with agitation at 600 rpm;
KTP-NH2 was further tested on a general inducer of the same pathological mechanism to assess its specificity for tau and compared with two control KTP derivatives which were tested on the same platform.
The Endoplasmic Reticulum (ER) fulfils multiple cellular functions, the main one being the proper folding of proteins destined for secretion or display on the cell surface. Many disturbances cause accumulation of unfolded proteins in the ER, triggering an evolutionarily conserved response, termed the unfolded protein response (UPR) or ER stress. The initial intent of the UPR is to adapt to the changing environment, and re-establish normal ER function.
In parallel, the yeast platform DISAGGREGATOR I P301L comprises the same ER stress element operably linked to the same GFP reporter element and additionally expresses the exogenous protein TAU P301L which induces ER stress.
as §2
DISAGGREGATOR I P301L cells were grown in 200 μl medium containing KTP-NH2 or control compounds (referred to as control 1 and control 2) at a concentration of 10 μM and 100 μM. No effect on the fluorescence could be detected for the control compounds, meaning that the two compounds are inefficient to reduce the stress triggered by the TAU P301L protein (FIGS. 7 and 8).
as §3
The inventors created a yeast-based screening application for the detection of compounds that act as modulators of the toxicity (neurodegeneration) for neurons (not pain) induced by the expression of tau P301L, a pathological isoform of tau protein. This yeast-based application is designated as DISAGGREGATOR I P301L and provides a valuable tool for the high throughput screening of tau modulators. It is a model-based system where the cellular environment produced upon P301L expression is recapitulated and cell toxicity is measured and quantified. Compounds that have the potential to modulate pathological pathways activated by the expression of P301L are detected through a reduction in the cytotoxic readout. Tau protein is expressed in central nerve cells and, consequently, tauopathies are diseases of the central nervous system. This implies that a therapeutic compound for tauopathies must be able to access the central nervous system by penetrating the blood-brain barrier. We tested KTP-NH2 in the DISAGGREGATOR P301L system. Results were very impressive for KTP-NH2 to be used as a drug for tau-associated pathologies. Therefore, after obtaining the proof of concept confirmation of KTP-NH2 potential as a tau modulator, we developed a series of derivatives with a higher plasma-stability. The present invention protects the use of KTP-NH2 and its derivatives in the treatment of tau-induced cytotoxicities.

The subject of data set [6] is rats (Wister, male). The data set can be described thus: In vivo toxicology: histological alterations in liver, kidney and spleen. The arrangement: species or system rat. The following applies: i.p. once a day 3.23 mg-100 g body mass, seven days, hematoxylin/eosin sections. The procedure: as §1
For investigation of histological alterations in liver, kidney and spleen hematoxylin/eosin-stained sections of fixed tissue were used. Hematoxylin/eosin-stained sections were examined by an experienced pathologist.

Setting [7] is: 100 μM, average of two experiments (FIG. 13).

The structures appear in SMILES notation.

`N=C(N)NCCCC(NC(=O)C(N)Cc1ccc(O)cc1)C(N)=O` [KTP-NH2, L-Tyr-L-Arg-NH2]: in the data set with rats (Wister, male) [1], the GGT in plasma result is on record as “below the detection limit” and the “hepatotoxicity markers in plasma (AST, ALT, ALP, total bilirubin) versus control animals” value was “no toxic effects were detected”. Besides, the “basal antioxidant capacity in plasma (water-soluble ACW and lipid-soluble ACL constituents)” value with rats (Wister, male) [2] is “does not induce significant modifications”. In addition, the “action on ER stress chemically induced with tunicamycin” value in data set [3] (10 and 100 μM, first assay (FIG. 10)) is “almost no action”. Further, the “decrease of stress chemically induced with tunicamycin” value in data set [3] (second assay (FIG. 12)) is “did not significantly decrease”. Also, in data set [3] (setting [7]), the “residual ER stress signal, of the maximum level without compound” value is recorded as 80%. Moreover, the “compound remained after incubation with microsomal preparation” value in data set [4] is on record as 93%. Besides, the CYP3A4 inhibition entry on CYP3A4 was “not to inhibit”. Besides, the “effect on the fluorescence (ER stress triggered by TAU P301L)” value in data set [5] (10 μM and 100 μM) was “decreased the fluorescence signal”. For the same molecule, in data set [5] (10 μM), the “decrease of the fluorescent signal” value turned out to be 40% and the “decrease of the stress” value was 50%. Also, in data set [5] (setting [7]), the “residual ER stress signal, of the maximum level without compound” value is ~40%. For the same molecule, in data set [5] (100 μM), the “decrease of the fluorescent signal” value is on record as 65% and the “decrease of the stress” value worked out at 50%. In the data set on rats (Wister, male) [6], the “histological alterations in kidney and spleen” value was “no histological modifications were found”; the “histological alterations in liver” value was “no signs of hepatic necrosis”.

The values are drawn from patent US20110294741A1, “USE OF COMPOUNDS IN THE TREATMENT OF TAU-INDUCED CYTOTOXICITIES” (Bioalvo-Servicos, Investigacao e Desenvolvimento em …, priority 2008, published 2011).
